Experiment [1] concerns the target T1, OX2R (Oryctolagus cuniculus, UniProt G1STQ8).
T1 sequence (G1STQ8 1-444): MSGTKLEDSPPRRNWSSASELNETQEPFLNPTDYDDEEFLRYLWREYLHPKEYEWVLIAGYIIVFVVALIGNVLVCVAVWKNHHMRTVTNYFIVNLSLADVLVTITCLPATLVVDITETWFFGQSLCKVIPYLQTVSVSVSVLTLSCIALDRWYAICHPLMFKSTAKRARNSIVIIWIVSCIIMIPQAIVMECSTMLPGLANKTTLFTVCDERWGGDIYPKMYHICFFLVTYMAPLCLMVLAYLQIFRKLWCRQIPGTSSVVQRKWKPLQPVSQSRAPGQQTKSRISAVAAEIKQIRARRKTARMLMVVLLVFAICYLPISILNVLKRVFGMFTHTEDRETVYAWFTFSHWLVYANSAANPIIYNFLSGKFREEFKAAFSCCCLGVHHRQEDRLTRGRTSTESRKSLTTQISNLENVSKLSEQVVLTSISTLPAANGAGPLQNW
Kind of experiment: Radio-ligand displacement binding, CHO-K1 membranes, rabbit OX2R. The note with it: for Ki: read-out: OX2R affinity (Ki); for fold OX2R selectivity (Ki): OX1R Ki / OX2R Ki. Here is the method: (§1) MK-1064 was evaluated for its ability to inhibit orexin-peptide-A-induced calcium mobilization in CHO cell lines separately expressing OX1R and OX2R from mice, rats, rabbits, dogs, rhesus monkeys and humans.
(§2) Binding and functional blockade of OX1R and OX2R with MK-1064 relative to other 2-SORAs and the DORA, MK-6096, were assessed using membranes from Chinese hamster ovary (CHO)-K1 cells (American Type Tissue Collection, Manassas, VA) transfected to express human, mouse, rat, rabbit, dog, or rhesus monkey OX1R or OX2R receptors, as described previously. The kinetics of binding to human OX2R was assessed by radioligand displacement on CHO-K1 cells expressing the receptor. […] The ON rate analysis was performed by presoaking GF/B filters in 0.3% polyethyleneimine (Sigma) using a Skatron 12-well cell harvester and cold buffer at the indicated time points after addition. For OFF rate determination, binding reactions were allowed to proceed to equilibrium and terminated with 1000x [Kd] of unlabeled antagonist and filtered as above at pre-determined time points. Ultima Gold^TM (PerkinElmer 6013327) scintillation cocktail was added to each filter disc and counted on a PerkinElmer TriCarb 2910 scintillation counter. Data were analyzed using GraphPad® Prism v 6.04 (San Diego, CA, USA). The KON rate was determined according to the equation, KON = (KOBS − KOFF)/[ligand].

The target of experiment [2] is T2, OX2R (Homo sapiens, UniProt O43614).
T2 sequence (O43614 1-444): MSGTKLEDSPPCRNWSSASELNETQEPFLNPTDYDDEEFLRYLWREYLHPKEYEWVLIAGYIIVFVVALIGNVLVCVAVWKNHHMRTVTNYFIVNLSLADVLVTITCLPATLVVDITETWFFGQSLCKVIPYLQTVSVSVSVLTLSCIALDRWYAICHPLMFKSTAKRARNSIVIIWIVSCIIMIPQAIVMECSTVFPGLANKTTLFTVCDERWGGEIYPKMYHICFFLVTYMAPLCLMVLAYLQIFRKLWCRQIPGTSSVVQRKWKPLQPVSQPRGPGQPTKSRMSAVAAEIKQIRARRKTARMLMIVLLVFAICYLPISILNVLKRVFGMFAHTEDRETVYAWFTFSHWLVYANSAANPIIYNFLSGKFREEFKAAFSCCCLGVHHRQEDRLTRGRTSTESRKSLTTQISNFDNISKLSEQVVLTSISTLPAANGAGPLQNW
Nature of the experiment: Radio-ligand displacement binding, CHO-K1 membranes, human OX2R. Set-up: expressed in transfected cells; host or cells: CHO-K1. The note with it: for Ki: read-out: OX2R affinity (Ki); for fold OX2R selectivity (Ki): OX1R Ki / OX2R Ki. The method, then: as §1, §2

Experiment [3] deals with T3, OX2R (Canis lupus familiaris, UniProt Q9TUP7).
T3 construct: expressed in transfected cells; host or cells: CHO-K1
T3 sequence (Q9TUP7 1-444): T1 sequence (G1STQ8 1-444) with R12C, S19P, I70V, D217E, V272A, S275P, A277G, L414F, E415D
Nature of the experiment: Inhibition of orexin-peptide-A-induced calcium mobilization in CHO cells, dog OX2R. The following applies: for fold OX2R selectivity (Kb): OX1R Kb / OX2R Kb. Format: cell-based. The method, then:
as §1, §2
A general note: A change in cytosolic calcium serves as a functional read-out for many receptors and channels.

Experiment [4] has as its target T4, OX2R (Mus musculus, UniProt P58308).
T4 construct: expressed in transfected cells; host or cells: CHO-K1
T4 sequence (P58308 1-460): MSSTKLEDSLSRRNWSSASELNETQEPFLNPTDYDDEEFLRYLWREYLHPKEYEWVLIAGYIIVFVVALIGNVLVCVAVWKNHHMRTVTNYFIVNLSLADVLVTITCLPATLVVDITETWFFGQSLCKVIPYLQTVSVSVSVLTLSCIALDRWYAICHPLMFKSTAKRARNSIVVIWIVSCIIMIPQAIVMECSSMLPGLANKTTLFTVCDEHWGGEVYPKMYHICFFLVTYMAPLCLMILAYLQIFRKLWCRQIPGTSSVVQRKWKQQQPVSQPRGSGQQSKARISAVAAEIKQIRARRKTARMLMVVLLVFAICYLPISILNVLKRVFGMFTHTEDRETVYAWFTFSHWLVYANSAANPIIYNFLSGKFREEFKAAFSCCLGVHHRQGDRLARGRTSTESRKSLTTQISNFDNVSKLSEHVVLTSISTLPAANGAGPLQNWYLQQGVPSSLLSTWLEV
Kind of experiment: Inhibition of orexin-peptide-A-induced calcium mobilization in CHO cells, mouse OX2R. The format is cell-based. The note with it: for fold OX2R selectivity (Kb): OX1R Kb / OX2R Kb. The method, then:
as §1, §2

Another experiment concerns the target T5, OX1R (Canis lupus familiaris, UniProt A0A8I3RSX8).
T5 sequence (A0A8I3RSX8 1-427): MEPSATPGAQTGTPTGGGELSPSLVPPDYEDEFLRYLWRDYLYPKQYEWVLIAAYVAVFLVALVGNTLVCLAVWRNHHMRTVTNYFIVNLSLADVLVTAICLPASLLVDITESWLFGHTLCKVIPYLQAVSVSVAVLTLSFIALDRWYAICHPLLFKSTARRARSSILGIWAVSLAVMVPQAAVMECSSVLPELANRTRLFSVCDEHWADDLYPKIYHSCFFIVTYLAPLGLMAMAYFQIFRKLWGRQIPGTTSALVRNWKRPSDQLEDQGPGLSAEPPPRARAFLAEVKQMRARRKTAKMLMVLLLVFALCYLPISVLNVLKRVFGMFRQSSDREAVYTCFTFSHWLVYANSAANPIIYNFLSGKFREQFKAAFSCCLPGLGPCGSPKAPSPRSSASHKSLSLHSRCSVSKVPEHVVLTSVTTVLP
Kind of experiment: Inhibition of orexin-peptide-A-induced calcium mobilization in CHO cells, dog OX1R. The format is cell-based. The method, then: as §1, §2

Positions count from the first letter of the chain named. A value given as a limit tells only on which side of the number the result lay.

From article PMC4891657, “Orexin 2 Receptor Antagonism is Sufficient to Promote NREM and REM Sleep from Mouse to Man” (Scientific Reports, 2016) come the findings set out here.

Usually Ki stands for the equilibrium dissociation constant of an inhibitor or competing ligand from its target.

For the compound `COc1ccc(CNC(=O)c2cc(-c3cncc(C)c3)ncc2-c2nccs2)nc1OC` [MK-3697], the Ki at OX2R [1] turned out to be 1.01 nM; at OX2R [2], 0.97 nM. Moreover, the Kb at OX2R [3] was 16 nM; at OX2R [4], 12 nM; at OX1R, over 10000 nM.
Regarding `COc1ccc(CNC(=O)c2cc(-c3cc(Cl)cc(Cl)c3)cnc2-c2cccnc2)cc1OC` [2-SORA-18], the figures for the “fold OX2R selectivity (Ki)” value on OX2R [1] and on OX2R [2] were “[2410] fold” and “[1000] fold”, respectively. Besides, the Ki at OX2R [1] and at OX2R [2] was 0.1 nM throughout. Moreover, the results for the Kb at OX2R [3], on OX2R [4] and at OX1R were 27 nM, 24 nM and 87 nM, respectively. Also, the figures for the “fold OX2R selectivity (Kb)” value at OX2R [3] and on OX2R [4] were “[3] fold” and “[9] fold”, respectively.
Regarding `COc1ccc(CNC(=O)c2cc(-c3cncc(Cl)c3)cnc2-c2ccccn2)nc1OC` [MK-1064, 5″-chloro-N-[(5,6-dimethoxypyridin-2-yl)methyl]-2,2′:5′, 3″-terpyridine-3′-carbo xamide], the “fold OX2R selectivity (Ki)” value is “[4780] fold” at OX2R [1] and “[2885] fold” at OX2R [2]. For the same compound, the figures for the Ki on OX2R [1] and on OX2R [2] were 0.51 nM and 0.52 nM, respectively. For the same compound, the Kb was 11 nM at OX2R [3], 7 nM at OX2R [4] and 3700 nM on OX1R. In addition, the figures for the “fold OX2R selectivity (Kb)” value on OX2R [3] and on OX2R [4] were “[337] fold” and “[1471] fold”, respectively.
Regarding `COc1ccc(CNC(=O)c2cc(-c3cncc(C)c3)ncc2-c2ccccc2)nc1OC` [2-SORA-7], the “fold OX2R selectivity (Ki)” value at OX2R [1] was “[9986] fold”; at OX2R [2] it was “[5957] fold”. The values for the Ki on OX2R [1] and at OX2R [2] were 0.44 nM and 0.47 nM, respectively. The Kb was 13 nM at OX2R [3], 14 nM at OX2R [4] and over 10000 nM on OX1R. For the same compound, the “fold OX2R selectivity (Kb)” value was “[>769] fold” at OX2R [3] and “[568] fold” on OX2R [4].
As for `Cc1ccc(-c2ncccn2)c(C(=O)N2C[C@H](COc3ccc(F)cn3)CC[C@H]2C)c1` [MK-6096], the “fold OX2R selectivity (Ki)” value at OX2R [1] was “[9.3] fold”; at OX2R [2] it was “[8.1] fold”. Also, the values for the Ki on OX2R [1] and at OX2R [2] were 0.28 nM and 0.31 nM, respectively. The Kb at OX2R [3], on OX2R [4] and on OX1R was 10 nM in each case. Further, the results for the “fold OX2R selectivity (Kb)” value at OX2R [3] and on OX2R [4] were “[1.0] fold” and “[0.9] fold”, respectively.
